Results as given in US20080206287A1, “Use of cyclosporin A to sensitize resistant cancer cells to death receptor ligands” (priority 2006, published 2008).
“Also recorded” adds a separate entry of the source.

Key:
[1] = tested on: OVCAR-3 and T47D tumor lines; test: Extrinsic versus intrinsic pathway stimuli in further tumor lines; assay type: cell-based
PPC-1 cells = test: Apoptosis of PPC-1 cells transfected with CrmA or Bcl-XL; assay type: cell-based; details: for protection by Bcl-XL against apoptosis induced by CH-11 plus compound: PPC-1 cells transfected with Bcl-XL; for protection by CrmA against apoptosis induced by CH-11 plus compound: PPC-1 cells transfected with CrmA
Description: Cell transfections. PPC-1 cells (2×10^5) were seeded in 35 mm diameter plates in RPMI with 10% FCS. The next day the cells were co-transfected using Lipofectamine Plus (Invitrogen, Carlsbad, Calif.) with 0.5 μg GFP-encoding plasmid pEGFP (Invitrogen) in combination with […] of plasmids encoding Bcl-XL, the viral caspase-8 inhibitor Crm A, or empty vector. At 2 days post-transfection, cells were incubated with various concentrations of CH-11 antibody and the test compounds for 24 hours, then the percentage apoptosis was scored by UV-microscopic analysis of the GFP-positive cells, counting a minimum of 200 cells. Cells that had rounded up and were floating in the medium were counted as non-viable, while cells that remained adherent to the plate with normal morphological features were counted as viable.
To further address the specificity of the compounds for the extrinsic pathway, the effects of selective apoptosis inhibitory genes were examined. For these experiments, PPC-1 cells were transfected with plasmids encoding CrmA, a viral protein that blocks the extrinsic pathway by inhibiting caspase-8 (Zhou et al., J. Biol. Chem. 272:7797-7800, 1997) or encoding Bcl-xL, a mitochondria-targeting protein that blocks the intrinsic pathway by inhibiting release of cytochrome c (Boise et al., Cell 74:597-608, 1993; Kharbanda et al., Proc. Natl. Acad. Sci. USA 94:6939-6942, 1997). After transfection, cells were treated with CH-11 antibody and compounds 6094911, 5809354, or […] scoring the percentage of apoptotic cells among the successfully transfected cells as determined by co-transfection of a GFP-marker plasmid.

FAS or TRAIL receptors = test: Surface expression of death receptors by flow cytometry; assay type: cell-based; details: PPC-1 cells
From the text: Furthermore, since these compounds sensitize to both FAS and TRAIL, they presumably act distal to death receptors.

FLIP = FLIP protein immunoblot; assay type: cell-based, human; details: for levels of FLIP protein (long isoform): PPC-1 cells, with or without CH-11, 24 hours, immunoblot
Description: Immunoblot analysis. Protein extracts were obtained by washing cells with phosphate-buffered saline (PBS) [pH 7.4] and suspending the cells in lysis buffer [10 mM Tris (pH 7.4), 150 mM NaCl, 0.1% Triton X-100, 0.5% sodium deoxycholate, and 5 mM EDTA] containing protease inhibitors (Complete tablets; Roche, Indianapolis, Ind.). Immunoblot assays were performed as described in Carter et al. (Blood 105:4043-4050, 2005). Briefly, equal amounts of protein as determined by a Bradford assay (Bradford, Anal. Biochem. 72:248-54, 1976) were subjected to SDS-PAGE (4-20% gradient gels from ISC BioExpress, Kaysville, Utah), followed by transfer to nitrocellulose membranes. Membranes were incubated with mouse monoclonal anti-human FLIP (NF6 clone) (1:500 v/v) (Alexis, San Diego, Calif.), 1:1,000 (v/v) anti-aspase-8 clone 5F7 (Upstate) and mouse monoclonal anti-tubulin (1:2000 v/v) (Sigma Inc). Secondary antibodies consisted of horseradish peroxidase-conjugated goat anti-rabbit IgG or goat anti-mouse IgG (Bio-Rad, Hercules, Calif.). Detection was performed by the enhanced chemiluminescence method (Pierce, Rockford, Ill.).
Effects of sensitizing compounds on FLIP protein. Since FAS-sensitizing compounds 6094911 and 5809354 modulate the extrinsic pathway downstream of TNF-family death receptors but upstream of effector caspases, the effects of those compounds on expression of FLIP, an intracellular antiapoptotic protein that binds caspases-8 and -10 and is capable of suppressing death receptor signaling at a proximal point within the extrinsic pathway, was examined. For these experiments, PPC-1 cells were treated with sensitizing compounds in the presence or absence of CH-11 antibody, then cell lysates were prepared 24 hours later, and analyzed by immunoblotting for FLIP.
The levels of the short isoform of FLIP were less than 5% of total FLIP protein as measured by immunoblotting and quantitative densitometry. Therefore, given the very low levels of the short isoform, the analysis was limited to the effects of the compounds on the long isoform of FLIP.

Structure (SMILES) | sensitization to extrinsic versus intrinsic pathway stimuli [1] | protection by Bcl-XL against apoptosis induced by CH-11 plus compound (PPC-1 cells) | protection by CrmA against apoptosis induced by CH-11 plus compound (PPC-1 cells) | surface expression of FAS or TRAIL receptors (FAS or TRAIL receptors) | levels of FLIP protein (long isoform) (FLIP) | levels of FLIP (FLIP; non-responding cell lines DU145 and MDA-MB-468)
CCn1c(=N)n(CC(=O)c2cc(C(C)(C)C)c(O)c(C(C)(C)C)c2)c2ccccc21 [compound 5569100, 1-(3,5-Di-tert-butyl-4-hydroxy-phenyl)-2-(3-ethyl-2-imino-2,3-dihydro-benzoimidazol-1-yl)-ethanone] | confirming that the results are not unique to PPC-1 cells | no protective effect | almost completely protected | did not change | decreased levels of FLIP protein; also recorded: reduced FLIP expression | 
O=C(CCCOc1ccc(Cl)cc1Cl)NO [compound 5809354, 4-(2,4-dichlorophenoxy)-N-hydroxybutanamide] | confirming that the results are not unique to PPC-1 cells | no protective effect | almost completely protected | did not change | decreased levels of FLIP protein | decreased
CC(=O)CC(=O)Nc1ccc(Cl)c(C(F)(F)F)c1 [compound 6094911, N-[4-chloro-3-(trifluoromethyl)phenyl]-3-oxobutanamide] | confirming that the results are not unique to PPC-1 cells | no protective effect | almost completely protected | did not change | did not alter levels of FLIP protein | 
